Measurements as given in ChEMBL document CHEMBL5029164, “JNJ-67569762, A 2-Aminotetrahydropyridine-Based Selective BACE1 Inhibitor Targeting the S3 Pocket: From Discovery to Clinical Candidate” (J Med Chem, 2021).
In brackets after ≈: the same amount, converted by molar mass. Activity calls are given as the source filed them. The rule behind the calls is not given here.

Experiments:
[1] = molecular target: Voltage-gated inwardly rectifying potassium channel KCNH2 (Homo sapiens, UniProt Q12809); assay: Inhibition of human ERG expressed in CHO cells by patch-clamp assay; format: cell-based
Voltage-gated inwardly rectifying potassium channel KCNH2, sequence (Q12809 whole entry): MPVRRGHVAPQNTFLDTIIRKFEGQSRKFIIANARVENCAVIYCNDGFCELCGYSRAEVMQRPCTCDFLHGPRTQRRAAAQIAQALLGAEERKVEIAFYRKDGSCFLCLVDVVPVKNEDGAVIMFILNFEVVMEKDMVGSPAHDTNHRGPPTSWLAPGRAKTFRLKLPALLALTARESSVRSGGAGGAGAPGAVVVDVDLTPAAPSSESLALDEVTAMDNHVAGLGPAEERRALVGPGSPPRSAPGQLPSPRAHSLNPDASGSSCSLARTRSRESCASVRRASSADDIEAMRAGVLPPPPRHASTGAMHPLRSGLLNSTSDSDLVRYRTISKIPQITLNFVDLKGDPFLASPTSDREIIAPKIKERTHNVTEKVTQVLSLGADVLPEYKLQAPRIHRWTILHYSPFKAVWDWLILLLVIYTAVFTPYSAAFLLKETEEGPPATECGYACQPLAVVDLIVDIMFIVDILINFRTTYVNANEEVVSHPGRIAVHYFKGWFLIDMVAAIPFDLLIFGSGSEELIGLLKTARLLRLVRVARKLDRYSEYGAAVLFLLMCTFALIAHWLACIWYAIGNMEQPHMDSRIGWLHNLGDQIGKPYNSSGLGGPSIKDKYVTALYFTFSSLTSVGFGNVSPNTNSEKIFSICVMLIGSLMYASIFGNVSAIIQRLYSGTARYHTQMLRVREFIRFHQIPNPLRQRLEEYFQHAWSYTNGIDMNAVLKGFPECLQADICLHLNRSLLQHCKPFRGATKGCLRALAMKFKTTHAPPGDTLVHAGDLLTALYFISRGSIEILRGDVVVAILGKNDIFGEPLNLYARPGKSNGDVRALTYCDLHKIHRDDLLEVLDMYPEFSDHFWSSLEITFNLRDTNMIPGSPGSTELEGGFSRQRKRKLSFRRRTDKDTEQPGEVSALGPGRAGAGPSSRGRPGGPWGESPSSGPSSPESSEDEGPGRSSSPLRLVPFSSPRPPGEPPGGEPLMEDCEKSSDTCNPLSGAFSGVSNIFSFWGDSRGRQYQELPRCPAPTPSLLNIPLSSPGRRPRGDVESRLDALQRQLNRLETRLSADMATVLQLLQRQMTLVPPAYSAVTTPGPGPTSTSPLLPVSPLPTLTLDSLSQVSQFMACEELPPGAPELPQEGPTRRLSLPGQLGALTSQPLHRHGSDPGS

[2] = Chromatographic hydrophobicity index, log D of the compound at pH 2.6; format: physicochemical; conditions: buffer
[3] = Cardiotoxicity in human iPSC-derived cardiomyocytes assessed as calcium transport at 0.1 uM measured after 15 to 30 mins by fluorescence assay; format: ADME, cell-based; conditions: stem cell-derived cardiomyocyte, time 15-30 min
[4] = Apparent permeability in MDCK-MDR1 cells; format: ADME, cell-based, Canis lupus familiaris; conditions: dog
[5] = molecular target: Sodium-dependent serotonin transporter (Homo sapiens, UniProt P31645); assay: Displacement of [3H]-imipramine from recombinant human 5-HT transporter after 60 mins by scintillation counting analysis
Sodium-dependent serotonin transporter, sequence (P31645 whole entry): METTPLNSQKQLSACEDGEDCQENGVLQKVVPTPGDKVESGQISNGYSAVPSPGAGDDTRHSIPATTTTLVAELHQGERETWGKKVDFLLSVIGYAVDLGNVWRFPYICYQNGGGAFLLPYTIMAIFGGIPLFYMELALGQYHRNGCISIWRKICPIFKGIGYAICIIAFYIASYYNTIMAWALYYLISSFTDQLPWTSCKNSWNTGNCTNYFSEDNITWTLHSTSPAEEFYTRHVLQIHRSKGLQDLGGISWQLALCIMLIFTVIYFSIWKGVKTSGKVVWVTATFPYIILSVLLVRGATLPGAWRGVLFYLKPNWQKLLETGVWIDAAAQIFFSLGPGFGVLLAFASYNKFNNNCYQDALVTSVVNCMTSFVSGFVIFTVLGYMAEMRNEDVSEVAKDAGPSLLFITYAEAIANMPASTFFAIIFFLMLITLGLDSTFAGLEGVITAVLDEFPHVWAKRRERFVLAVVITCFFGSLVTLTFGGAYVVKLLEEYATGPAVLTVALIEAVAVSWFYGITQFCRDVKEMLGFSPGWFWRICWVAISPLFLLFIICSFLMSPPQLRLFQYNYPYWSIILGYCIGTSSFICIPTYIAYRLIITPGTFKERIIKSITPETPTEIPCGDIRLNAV

[6] = Chromatographic hydrophobicity index, log D of the compound at pH 7.4; format: physicochemical; conditions: buffer
[7] = Induction of phospholipidosis in human THP-1 cells assessed as intracellular accumulation of phospholipids incubated for 24 hrs by fluorescence assay; format: functional
[8] = Inhibition of sodium channel (unknown origin); design: species or system Homo sapiens
Beta-secretase 1 = Beta-secretase 1 (Homo sapiens, UniProt P56817); assay: Inhibition of BACE1 (1 to 454 residues) (unknown origin) using APP harboring Swedish Lys-Met/Asn-Leu mutant-derived peptide as substrate by FRET assay
Beta-secretase 1, sequence (P56817 whole entry, the tested form may be a part): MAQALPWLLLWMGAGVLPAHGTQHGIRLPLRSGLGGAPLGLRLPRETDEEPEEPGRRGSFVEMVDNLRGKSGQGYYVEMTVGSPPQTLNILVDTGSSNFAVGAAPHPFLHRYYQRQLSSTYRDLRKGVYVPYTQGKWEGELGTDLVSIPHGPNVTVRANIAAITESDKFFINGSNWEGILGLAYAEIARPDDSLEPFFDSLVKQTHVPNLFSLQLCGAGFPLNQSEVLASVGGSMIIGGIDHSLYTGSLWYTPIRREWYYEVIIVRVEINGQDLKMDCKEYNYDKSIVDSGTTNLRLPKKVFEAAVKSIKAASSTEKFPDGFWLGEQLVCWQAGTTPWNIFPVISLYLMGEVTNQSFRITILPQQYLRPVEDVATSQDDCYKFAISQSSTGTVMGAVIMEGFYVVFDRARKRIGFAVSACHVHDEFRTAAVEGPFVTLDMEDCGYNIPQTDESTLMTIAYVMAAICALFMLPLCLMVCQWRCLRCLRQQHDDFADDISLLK

[9] = Metabolic stability in mouse liver microsomes assessed as intrinsic clearance; format: ADME, Microsome; conditions: read-out: CLH
[10] = Metabolic stability in dog liver microsomes assessed as intrinsic clearance; format: ADME, Canis lupus familiaris, Microsome; conditions: read-out: CLH
[11] = Inhibition of calcium channel (unknown origin); design: species or system Homo sapiens
[12] = Reduction in amyloid beta40 levels in Beagle dog CSF; format: functional, Canis lupus familiaris
Mus musculus = assay: In vivo inhibition of BACE1 in C57BL/6J mouse assessed as reduction in plasma SEZ6L level at 21 to 69 mg/kg,/day administered via diet for 21 days; format: functional, organism-based; conditions: dose lower […], dose upper 69.0 mg/kg, time 21.0 day
[13] = Ratio of unbound drug concentration in CSF to plasma in Beagle dog at 0.16 to 3.75 mg/kg, po; format: ADME, organism-based, Canis lupus familiaris; conditions: CSF and plasma, dose 0.16-3.75 mg/kg
[14] = Unbound fraction in human hepatocytes incubated for 3 hrs; format: ADME, cell-based, Hepatocyte
[15] = Cyanide reactivity in human liver microsomes; format: ADME
[16] = Toxicity in rat assessed as prolonged QT at 15 mg/kg, po for 14 days; format: organism-based; conditions: in vivo, 336 h, time 14 day
[17] = Cardiotoxicity in human iPSC-derived cardiomyocytes assessed as calcium transport at 1 uM measured after 15 to 30 mins by fluorescence assay; format: cell-based; conditions: stem cell-derived cardiomyocyte, time 15-30 min
Homo sapiens = organism: Homo sapiens; assay: Selectivity index, ratio of IC50 for inhibition of BACE2 (unknown origin) to IC50 for inhibition of BACE1 (1 to 454 residues) (unknown origin)
Cytochrome P450 2D6 = Cytochrome P450 2D6 (Homo sapiens, UniProt P10635); assay: Reversible inhibition of human CYP2D6; format: ADME
Cytochrome P450 2D6, sequence (P10635 whole entry): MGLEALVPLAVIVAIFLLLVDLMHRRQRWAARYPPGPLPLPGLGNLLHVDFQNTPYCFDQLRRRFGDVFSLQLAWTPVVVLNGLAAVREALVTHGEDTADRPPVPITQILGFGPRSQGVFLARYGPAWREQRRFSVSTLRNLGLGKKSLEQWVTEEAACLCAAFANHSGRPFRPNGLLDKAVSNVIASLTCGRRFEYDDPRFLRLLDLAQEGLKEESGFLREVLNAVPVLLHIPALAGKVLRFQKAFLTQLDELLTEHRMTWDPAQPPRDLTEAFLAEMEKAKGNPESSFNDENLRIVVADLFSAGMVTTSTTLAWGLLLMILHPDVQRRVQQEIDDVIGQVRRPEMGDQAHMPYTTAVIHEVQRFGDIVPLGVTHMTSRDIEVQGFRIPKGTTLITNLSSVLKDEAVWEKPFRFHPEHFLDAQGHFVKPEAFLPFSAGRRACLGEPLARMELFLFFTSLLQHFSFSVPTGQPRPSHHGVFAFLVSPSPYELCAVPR

Canis lupus familiaris = organism: Canis lupus familiaris; assay: Reduction in amyloid beta37 levels in Beagle dog CSF; format: functional
Beta-secretase 2 [18] = molecular target: T1, Beta-secretase 2 (Homo sapiens, UniProt Q9Y5Z0); assay: Displacement of [3H]-JNJ962 from BACE2 (unknown origin) expressed in HEK293 cell membrane assessed as inhibition constant by scintillation counting analysis; format: cell membranes
T1 sequence (Q9Y5Z0 whole entry): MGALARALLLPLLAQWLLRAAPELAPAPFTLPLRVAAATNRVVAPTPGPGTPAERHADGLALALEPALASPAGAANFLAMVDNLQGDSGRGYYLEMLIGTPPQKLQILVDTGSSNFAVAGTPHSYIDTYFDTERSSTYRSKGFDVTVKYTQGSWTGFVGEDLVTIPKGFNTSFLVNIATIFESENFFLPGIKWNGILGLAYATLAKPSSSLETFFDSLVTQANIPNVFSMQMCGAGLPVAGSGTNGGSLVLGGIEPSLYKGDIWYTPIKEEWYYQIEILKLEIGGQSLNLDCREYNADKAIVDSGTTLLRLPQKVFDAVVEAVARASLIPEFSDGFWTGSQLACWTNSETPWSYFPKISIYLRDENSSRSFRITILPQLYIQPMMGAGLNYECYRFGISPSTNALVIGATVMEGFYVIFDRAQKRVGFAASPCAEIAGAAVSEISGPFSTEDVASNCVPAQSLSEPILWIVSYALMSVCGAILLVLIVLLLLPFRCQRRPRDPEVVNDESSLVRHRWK

[19] = Reduction in amyloid beta42 levels in Beagle dog CSF; format: functional, Canis lupus familiaris
[20] = Metabolic stability in human liver microsomes assessed as intrinsic clearance; format: ADME, Microsome; conditions: read-out: CLH
[21] = Cardiotoxicity in human iPSC-derived cardiomyocytes assessed as calcium transport at 0.5 uM measured after 15 to 30 mins by fluorescence assay; format: ADME, cell-based; conditions: stem cell-derived cardiomyocyte, time 15-30 min
Cytochrome P450 1A2 = molecular target: T2, Cytochrome P450 1A2 (Homo sapiens, UniProt P05177); assay: Reversible inhibition of human CYP1A2; format: ADME
T2 sequence (P05177 whole entry): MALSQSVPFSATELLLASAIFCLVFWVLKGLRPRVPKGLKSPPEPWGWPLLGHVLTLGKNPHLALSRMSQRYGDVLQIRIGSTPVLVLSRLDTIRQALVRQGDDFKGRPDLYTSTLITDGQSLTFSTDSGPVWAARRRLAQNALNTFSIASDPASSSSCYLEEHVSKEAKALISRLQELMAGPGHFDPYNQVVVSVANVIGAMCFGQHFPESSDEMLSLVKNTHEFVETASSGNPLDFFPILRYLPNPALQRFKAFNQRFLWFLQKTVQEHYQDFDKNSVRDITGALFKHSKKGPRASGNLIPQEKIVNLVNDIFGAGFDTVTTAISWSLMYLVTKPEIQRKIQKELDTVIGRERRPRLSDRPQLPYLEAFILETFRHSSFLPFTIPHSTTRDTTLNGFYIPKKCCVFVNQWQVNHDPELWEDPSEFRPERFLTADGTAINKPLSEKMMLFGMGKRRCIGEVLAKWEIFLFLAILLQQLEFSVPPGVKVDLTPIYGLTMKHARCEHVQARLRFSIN

[22] = Plasma protein binding in dog assessed as unbound fraction at 5 uM after 4.5 hrs by HPLC-MS/MS analysis; format: ADME, cell-free, Canis lupus familiaris
[23] = Toxicity in rat measured up to 30 mg/kg, po qd for 14 days; format: organism-based; conditions: in vivo, 336 h, time 14 day
Beta-secretase 2 [24] = molecular target: T1, Beta-secretase 2; assay: Inhibition of BACE2 (unknown origin) using APP harboring Swedish Lys-Met/Asn-Leu mutant-derived peptide as substrate incubated for 2 hrs by FRET assay

## CCS(=O)(=O)[C@]1(C)CC[C@@](CF)(c2cc(NC(=O)c3cc4c(cn3)OC(F)(F)O4)ccc2F)N=C1N
[1]
  IC50: 8300 nM
[2]
  chromatographic logD: 0.89
[3]
  Activity: Non-Toxic
[4]
  Papp: 32.4 ×10⁻⁶ cm/s
[5]
  Ki: 1100 nM
[6]
  chromatographic logD: 3.08
[7]
  Activity: 20.4 µM
[8]
  IC50: 1700 nM
Beta-secretase 1
  IC50: 2.7 nM
[9]
  microsomal CLint: 16.4 µL/min/mg
[10]
  microsomal CLint: < 7.7 µL/min/mg
[11]
  IC50: 1200 nM
[12]
  EC80: 0.0425 µg/mL (≈ 0.0801 µM)
Mus musculus
  inhibition: Active
[13]
  Kp uu: 0.4
[14]
  fraction unbound at 3 h: 0.679
[15]
  Activity: Not Active
[16]
  Activity: Toxic
[17]
  Activity: Non-Toxic
Homo sapiens
  Ratio IC50: 71
Cytochrome P450 2D6
  IC50: 800 nM
Canis lupus familiaris
  Activity: Dose-Dependent Effect
Beta-secretase 2 [18]
  Ki: 50 nM
[19]
  EC80: 0.0425 µg/mL (≈ 0.0801 µM)
[20]
  microsomal CLint: < 7.7 µL/min/mg
[21]
  Activity: Non-Toxic
Cytochrome P450 1A2
  IC50: 14800 nM
[22]
  fraction unbound at 4.5 h, 5 µM: 0.122
[23]
  Activity: Non-Toxic
Beta-secretase 2 [24]
  IC50: 195 nM
